Article PMC3401165, “Regulation of the Cyanobacterial CO2-Concentrating Mechanism Involves Internal Sensing of NADP^+ and α-Ketogutarate Levels by Transcription Factor CcmR” (PLoS ONE, 2012)

How the values were obtained:
CmpR = biological target: T1, CmpR (Synechocystis sp. PCC 6803, UniProt Q55459); test: SPR difference curves, CmpR binding to immobilised operator DNA; conditions: 1.5 µM CmpR; ligand 10, 100, 500 µM; cmpA promoter DNA; effector (co-activator)
T1 construct: heterologously expressed in E. coli by essentially the same approach as His-tagged CcmR
T1 sequence (Q55459 1-304): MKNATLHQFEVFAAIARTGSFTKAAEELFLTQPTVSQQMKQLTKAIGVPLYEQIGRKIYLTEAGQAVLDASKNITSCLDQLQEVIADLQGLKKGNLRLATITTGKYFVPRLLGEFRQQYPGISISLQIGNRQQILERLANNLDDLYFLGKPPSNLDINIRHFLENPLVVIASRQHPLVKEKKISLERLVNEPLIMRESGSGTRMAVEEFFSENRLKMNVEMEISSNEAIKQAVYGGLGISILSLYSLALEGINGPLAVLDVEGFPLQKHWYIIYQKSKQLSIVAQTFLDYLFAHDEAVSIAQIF

CcmR = biological target: T2, CcmR (Synechocystis sp. PCC 6803, UniProt P73862); test: SPR difference curves, CcmR binding to immobilised operator DNA; conditions: 1.5 µM CcmR; ligand 10, 100, 500 µM; pndhF3 DNA; 10 mM Pipes pH 7.4, 300 mM NaCl; effector (co-repressor)
T2 construct: gene rbcR; recombinant N-terminally His-tagged, heterologously expressed
T2 sequence (P73862 1-316): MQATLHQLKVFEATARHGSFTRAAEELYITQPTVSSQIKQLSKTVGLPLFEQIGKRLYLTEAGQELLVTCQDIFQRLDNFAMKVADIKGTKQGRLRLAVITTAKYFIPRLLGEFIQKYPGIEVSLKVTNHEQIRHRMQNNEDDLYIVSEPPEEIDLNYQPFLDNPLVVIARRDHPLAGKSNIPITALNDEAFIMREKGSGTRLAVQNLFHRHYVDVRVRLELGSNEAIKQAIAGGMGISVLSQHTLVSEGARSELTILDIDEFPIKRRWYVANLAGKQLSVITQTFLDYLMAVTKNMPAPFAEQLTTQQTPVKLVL

[1] = test system: T3, CcmR (Synechocystis sp. PCC 6803), ORF:206cd751; test: SPR; conditions: SPR: 10 mM Pipes pH 7.4, 300 mM NaCl, 0.02% Tween-20, 25 uL/min, temperature not stated; EMSA: room temperature 20 min, 6% native PAGE (50 mM Tris pH 8.5 …)
T3 sequence: T2 sequence (P73862 1-316)

| Compound | SPR difference curves, CmpR binding to immobilised operator DNA (CmpR) | SPR difference curves, CcmR binding to immobilised operator DNA (CcmR) | binding [1] |
| --- | --- | --- | --- |
| O=C(O)COP(=O)(O)O [2-phosphoglycolate] | the presence of 2-PG and RuBP increased binding | – | – |
| NC(=O)c1ccc[n+]([C@@H]2O[C@H](COP(=O)(O)OP(=O)(O)OC[C@H]3O[C@@H](n4cnc5c(N)ncnc54)[C@H](OP(=O)(O)O)[C@@H]3O)[C@@H](O)[C@H]2O)c1 [NADP^+] | – | CcmR only showed modified binding only in the presence of NADP^+ and α-KG | – |
| O=C(COP(=O)(O)O)[C@H](O)[C@H](O)COP(=O)(O)O [ribulose-1,5-bisphosphate] | the presence of 2-PG and RuBP increased binding | – | – |
| O=C(O)CCC(=O)C(=O)O [α-KG] | – | CcmR only showed modified binding only in the presence of NADP^+ and α-KG | – |
| AGTCAAGCGACAATGGTATAACCTAGATGCATAGAAAGAGTGTTATTTGTTACACCATATCATAGGGGAAATAAAATTCCAGATCAACAACCATTTGCTTAAGTGAATGATAAGTCTGGGTAATTGGAGGAAGAGGCAGGCTA (double strand) [pndhF3-2] | – | – | binds |
| GCTCCCCGGACTAAGCTTGTCAAAATCATTGGCTTTATTCTATCATTGGTTATCTAACAACAATCCCAGGTCTATGAAAGTGAGTGTAATAGCCATAGGTCTATTTTAGTTATTGACTTCAGCACATCCTAGACCCAAG (double strand) [pccmR (SPR)] | – | – | binds |
